Experimental data: patent EP4782449A1, “TRICYCLIC PYRIDINE COMPOUND ACTING AS SARM1 ENZYME ACTIVITY INHIBITOR, AND USE THEREOF” (Artivila (ShenZhen) Innovation Center, Ltd., priority 2023, dated 2025)

How the values were obtained:
[1] = system: dorsal root ganglion explants; experiment: Axonal Wallerian degeneration assay in mouse DRG explant culture; format: cell-based, C57BL/6 male mice; settings: 10 µM test compound, 2 hours pretreatment, axons transected, images at 0 hour and 24 hours
Source text: The experimental method was based on Gerdts J et al. (Gerdts J, Sasaki Y, Vohra B, Marasa J, Milbrandt J. Image-based screening identifies novel roles for IkappaB kinase and glycogen synthase kinase 3 in axonal degeneration. J Biol Chem. 2011 Aug 12;286(32):28011-8).
Dorsal root ganglia were dissected from 2-month-old C57BL/6 male mice and placed in 35 mm culture dishes containing pre-cooled HBSS buffer. Excess tissue from each dorsal root ganglion was removed and cut into 2-3 explants using a scalpel, and the explants were planted in wells of a 96-well plate coated with 100 ng/mL Matrigel (Corning). 100 µL of DRG culture medium (Neurobasal medium (Gibco) containing 2% B-27 (Gibco), 1% GlutaMax (Gibco), and 10 ng/mL NGF (MCE)) was added, then cultured in a 37°C incubator for one week, with medium change on day 4, and experiments were performed on day 8.
0.1 µL of 10 mM test compound was dissolved in 100 µL DRG culture medium to prepare new culture medium containing 10 µM test compound. The culture medium in the 96-well plate was aspirated and new culture medium containing the test compound was added. Then the dorsal root ganglion explants were incubated with the medium in a 37°C incubator for 2 hours for pre-protection. After 2-hour pretreatment, a glass electrode was used to transect axons in the area near the tissue block, and bright-field images of axons in the same area were captured at 0 hour and 24 hours post axonal degeneration using a 20x objective lens of a microscope (Olympus). Axonal integrity was evaluated using an in-house developed script.

SARM1 = molecular target: T1, SARM1 (Homo sapiens, UniProt Q6SZW1); experiment: In vitro biochemical assay for inhibiting SARM1 enzyme activity (PC6 fluorescence, NADase); settings: full-length SARM1 from transfected HEK293 cells; 50 µM NAD, 50 µM PC6, 50 µM NMN activator; room temperature, 30 minutes; read-out: IC50
T1 construct: inventors produced full-length SARM1 for NAD enzyme activity experiments, and used it for screening; His (C); made in house; host or cells: HEK293 cells, transient transfection; supernatant of digitonin lysate, no further purification described
T1 sequence (Q6SZW1 28-724): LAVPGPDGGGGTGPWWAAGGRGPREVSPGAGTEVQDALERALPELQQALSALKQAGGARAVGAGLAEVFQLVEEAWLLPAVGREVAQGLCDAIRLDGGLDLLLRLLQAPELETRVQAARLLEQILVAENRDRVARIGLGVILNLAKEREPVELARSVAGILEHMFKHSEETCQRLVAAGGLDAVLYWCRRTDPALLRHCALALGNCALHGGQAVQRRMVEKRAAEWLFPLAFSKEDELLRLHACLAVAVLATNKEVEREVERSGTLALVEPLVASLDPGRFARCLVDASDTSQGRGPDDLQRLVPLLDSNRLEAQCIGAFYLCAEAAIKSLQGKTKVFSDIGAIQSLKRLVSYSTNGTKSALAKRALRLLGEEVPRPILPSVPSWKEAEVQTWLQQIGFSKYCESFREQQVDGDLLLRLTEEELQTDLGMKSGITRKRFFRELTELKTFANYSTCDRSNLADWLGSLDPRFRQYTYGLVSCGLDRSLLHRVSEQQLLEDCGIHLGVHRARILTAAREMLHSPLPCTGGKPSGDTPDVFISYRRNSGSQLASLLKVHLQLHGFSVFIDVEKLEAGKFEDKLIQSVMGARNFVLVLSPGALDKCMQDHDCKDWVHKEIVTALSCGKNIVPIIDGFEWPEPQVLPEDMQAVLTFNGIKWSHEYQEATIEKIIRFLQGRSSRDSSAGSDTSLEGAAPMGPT
Method: The gene sequence of SARM1 protein was amplified using PCR, and the PCR amplification product was constructed into pcDNA3.1-HIS-C plasmid. The above construction was completed by YouBio(Hunan, China). HEK293 cells were cultured in 10 cm dishes using DMEM, and the cells were transfected with 15 μg pcDNA3.1-SARM[…]-C expression plasmid on the following day. Cells were collected 48 hours after transfection, and SARM1 protein expressed in the cells was obtained by digitonin lysis for in vitro activity assay experiments. The specific procedure was as follows: Cells were digested with trypsin-EDTA, then centrifuged at 1000 rpm for 5 minutes, washed once with PBS, and then resuspended in PBS containing 100 μM digitonin, with 0.6 mL PBS for the cells in per 10 cm dish, and lysed for 5 minutes. […] Then the supernatant containing SARM1 protein was collected by centrifugation at 5000 rpm for 10 minutes. […] A group without inhibitor was used as control group. All mixtures were incubated at room temperature for 10 minutes. Then, 50 μM NAD and 50 μM PC6 as substrates and 50 μM NMN as an activator were added to the SARM1 protein incubated with the inhibitor, and the reaction was carried out at room temperature for 30 minutes. The concentrations of each component were the final concentrations in the reaction system. […] Finally, the reaction rate was used to represent the protein activity and calculate the half-maximal inhibitory concentration.

SMILES | IC50 (SARM1) | Degree of Protection Against Axonal Wallerian Degeneration [1]
O=C1C(Cc2ccc3c(c2)CC3)CCN1c1ccc2c(c1)COc1cnccc1-2 (stereo not shown) [Compound 19] | 1 to 10 µM | A (substantial protection (A) >50%)
O=C(CCc1ccc(Br)cc1)Nc1ccc2c(c1)COc1cnccc1-2 [Compound 22] | 0.1 to 1 µM | A (substantial protection (A) >50%)
O=C(CCc1ccc(Cl)c(F)c1)Nc1ccc2c(c1)COc1cnccc1-2 [Compound 28] | 0.1 to 1 µM | A (substantial protection (A) >50%)
N#Cc1ccc(CCC(=O)Nc2ccc3c(c2)COc2cnccc2-3)cc1F [Compound 30] | 0.1 to 1 µM | A (substantial protection (A) >50%)
O=C(CCc1ccc(C(F)(F)F)cc1)Nc1ccc2c(c1)COc1cnccc1-2 [Compound 32] | 0.1 to 1 µM | B (partial protection (B): 20% to 50%)
O=C(CCc1ccc(Cl)s1)Nc1ccc2c(c1)COc1cnccc1-2 [Compound 36] | 1 to 10 µM | A (substantial protection (A) >50%)
O=C(CCc1ccc(F)cc1F)Nc1ccc2c(c1)COc1cnccc1-2 [Compound 37] | 0.1 to 1 µM | A (substantial protection (A) >50%)
O=C(CCc1ccc(Cl)cc1F)Nc1ccc2c(c1)COc1cnccc1-2 [Compound 40] | 1 to 10 µM | A (substantial protection (A) >50%)
Cc1ccc(CCC(=O)Nc2ccc3c(c2)COc2cnccc2-3)cc1 [Compound 41] | 0.1 to 1 µM | A (substantial protection (A) >50%)
O=C(NCc1ccc(F)c(F)c1)Nc1ccc2c(c1)COc1cnccc1-2 [Compound 46] | 0.1 to 1 µM | A (substantial protection (A) >50%)
O=C(NCc1cccc(F)c1)Nc1ccc2c(c1)COc1cnccc1-2 [Compound 47] | 0.1 to 1 µM | A (substantial protection (A) >50%)

Further lines, with some results ahead:

IC50 (SARM1) | SMILES | Degree of Protection Against Axonal Wallerian Degeneration [1]
< 0.1 µM | O=C(CCc1ccc(Cl)c(Cl)c1)Nc1ccc2c(c1)COc1cnccc1-2 [Compound 21] | A (substantial protection (A) >50%)
< 0.1 µM | O=C(CCc1ccc(F)c(F)c1)Nc1ccc2c(c1)COc1cnccc1-2 [Compound 25] | A (substantial protection (A) >50%)
< 0.1 µM | O=C(CCc1cc(F)c(F)c(F)c1)Nc1ccc2c(c1)COc1cnccc1-2 [Compound 27] | B (partial protection (B): 20% to 50%)
< 0.1 µM | O=C(CCc1ccc(F)cc1)Nc1ccc2c(c1)COc1cnccc1-2 [Compound 29, 3-(4-fluorophenyl)-N-(6H-isochromeno[3,4-c]pyridin-8-yl)propanamide] | A (substantial protection (A) >50%)
< 0.1 µM | N#Cc1ccc(CCC(=O)Nc2ccc3c(c2)COc2cnccc2-3)cc1 [Compound 33] | A (substantial protection (A) >50%)
< 0.1 µM | O=C(CCc1cccc(F)c1)Nc1ccc2c(c1)COc1cnccc1-2 [Compound 34] | A (substantial protection (A) >50%)
< 0.1 µM | O=C(CCc1cc(F)cc(F)c1)Nc1ccc2c(c1)COc1cnccc1-2 [Compound 39] | A (substantial protection (A) >50%)
< 0.1 µM | O=C(CCc1ccc(Cl)cc1)Nc1ccc2c(c1)COc1cnccc1-2 [Compound 42, 3-(4-chlorophenyl)-N-(6H-isochromeno[3,4-c]pyridin-8-yl)propanamide] | A (substantial protection (A) >50%)
< 0.1 µM | O=C(NCc1ccc(F)cc1)Nc1ccc2c(c1)COc1cnccc1-2 [Compound 45, 1-(4-fluorobenzyl)-3-(6H-isochromeno[3,4-c]pyridin-8-yl)urea] | A (substantial protection (A) >50%)
